Tests used:
[1] = Lipophilicity, log D of the compound by shake-flask method; type: physicochemical; details: octanol/water
[2] = Clearance in dog at 1 mg/kg, iv and 3 mg/kg, po; type: ADME, organism-based, Canis lupus familiaris; details: in vivo
[3] = Half life in dog at 1 mg/kg, iv and 3 mg/kg, po; type: ADME, organism-based, Canis lupus familiaris; details: in vivo
[4] = Permeability from basolateral to apical side of MDCK cells expressing MDR1; type: ADME, cell-based, Canis lupus familiaris; details: dog
[5] = Oral bioavailability in dog; type: ADME, organism-based, Canis lupus familiaris; details: in vivo
[6] = Volume of distribution at steady state in dog at 1 mg/kg, iv and 3 mg/kg, po; type: ADME, organism-based, Canis lupus familiaris; details: in vivo, read-out: Vdss
[7] = Permeability from apical to basolateral side of MDCK cells expressing MDR1; type: ADME, cell-based, Canis lupus familiaris; details: dog

| SMILES | logD [1] | other results |
| --- | --- | --- |
| CCNc1nc2c(c(C(N)=O)n1)CN(C(=O)CCc1ccc(C(C)(F)F)nc1)CC2 | 1.4 |  |
| Cc1ccc(N(C)C(=O)c2c(-c3ccccc3Cl)noc2C)cc1Cl | 3.9 |  |
| CCc1nc2c(c(C(N)=O)n1)CN(C(=O)CCc1ccc(OC(F)(F)F)cc1)CC2 | 2.9 |  |
| COc1ccc2cc(CNCCc3ccc(Br)cc3)c(-c3ccsc3)nc2c1 | 5.1 |  |
| CCOc1nc2c(c(C(N)=O)n1)CN(C(=O)CCc1ccc(OC(F)(F)F)cc1)CC2 | 2.9 |  |
| CC[C@H]1[C@@H](O)[C@@H]2[C@H](C[C@H](O)[C@]3(C)[C@@H]([C@H](C)C[C@H](C)C(=O)O)CC[C@@H]23)[C@@]2(C)CCC(O)C[C@@H]12 (single isomer, unassigned) | 1.85 |  |
| CCc1nnn(-c2ccccc2)c1C(=O)N(C)c1ccc(Cl)cc1 | 2.9 |  |
| NC(=O)c1nc(C2CC2)nc2c1CN(C(=O)CCc1ccc(OC(F)(F)F)cc1)CC2 | 3.3 |  |

Now from value to compound, other results behind:

| logD [1] | SMILES | other results |
| --- | --- | --- |
| 2.2 | CCNc1nc2c(c(C(N)=O)n1)CN(C(=O)CCc1ccc(C(C)(F)F)cc1)CC2 |  |
| 3.4 | CCNc1nc2c(c(C(N)=O)n1)CN(C(=O)CCc1ccc(C(C)C)cc1)CC2 |  |
| 2.6 | CCNc1nc2c(c(C(N)=O)n1)CN(C(=O)CCc1ccc(CC(F)(F)F)cc1)CC2 |  |
| 1.4 | CCNc1nc2c(c(C(N)=O)n1)CN(C(=O)CCc1ccccc1)CC2 |  |
| 3.5 | CCNc1nc2c(c(C(N)=O)n1)CN(C(=O)CCc1ccc(SC(F)(F)F)cc1)CC2 |  |
| 3 | CCNc1nc2c(c(C(N)=O)n1)CN(C(=O)CCc1ccc(OC(F)(F)F)cc1)CC2 | clearance [2]: 8.05 mL/min/kg; half-life [3]: 50.4 min; Papp B→A [4]: 19.2 ×10⁻⁶ cm/s; bioavailability [5]: 41%; Vd [6]: 0.43 L/kg; Papp A→B [7]: 12.4 ×10⁻⁶ cm/s |
| 2.4 | CCNc1nc2c(c(C(N)=O)n1)CN(C(=O)CCc1ccc(CC)cc1)CC2 |  |
| 1.05 | CCNc1nc2c(c(C(N)=O)n1)CN(C(=O)CCc1ccc(OC)cc1)CC2 |  |
